Laboratory results: US20030219831A1, “Split-hybrid system” (priority 2002, published 2003)

Tests used:
Type in all cases: cell-based
RAR and IDI1 = assay: Split-hybrid system with RED1 reporter, RAR and IDII; settings: in the presence of retinoid acid
Gal-TK-Luc = assay: Specificity control, Gal-TK-Luc by itself or with co-transfection controls; settings: Gal-TK-Luc by itself or with controls Gal4N-Mad, Gal4N-IDII and NLS-HA-Mad-RAR
From the text: (§1) Next, two fusion proteins, NLS (nuclear localization signal)-HA (hemagglutinin)-Mad-RAR and Gal4N-IDII, were co-expressed in a cell containing a Gal-TK-Luc reporter gene construct. Unexpectedly, interactions between RAR and IDII led to a ˜7.5 fold repression of the reporter gene activity.

[1] = test system: interactions between RAR and IDII; assay: Retinoid acid split-hybrid system, NLS-HA-Mad-RAR and Gal4N-IDII with Gal-TK-Luc; design: dose or concentration left out as unconfirmed; settings: Gal-TK-Luc, ~7.5 fold repression without compound
From the text: as §1

[2] = test system: interactions between RAR and IDII; assay: Two-hybrid reporter assay, VP16-RAR and Gal4N-IDII co-expressed with Gal-TK-Luc; settings: 1 mM retinoid acid; VP16-RAR + Gal4N-IDII, Gal-TK-Luc; ~120 fold without compound
Method: Two fusion proteins, VP16-RAR and Gal4N-IDII, were co-expressed in a cell containing a Gal-TK-Luc reporter gene construct. Unexpectedly, interactions between RAR and IDII led to a ˜120 fold induction of the reporter gene activity. In contrast, in the presence of 1 mM retinoid acid, interactions of IDII with RAR were blocked and induction of the reporter gene activity was reduced to only ˜7 fold.

[3] = test system: interactions of Gal4N-IDII with SMRT-RAR; assay: Split-hybrid system, SMRT-RAR and Gal4N-IDII with Gal-RSV-Luc; settings: Gal-RSV-Luc, 8.5-fold repression without compound
From the text: Next, two fusion proteins, SMRT-RAR and Gal4N-IDII, were co-expressed in a cell containing a Gal-RSV-Luc reporter gene construct. Unexpectedly, interactions of Gal4N-IDII with SMRT-RAR conferred 8.5-fold repression. This repression was reversed by retinoid acid treatment.

SMILES: CC1=C(/C=C/C(C)=C/C=C/C(C)=C/C(=O)O)C(C)(C)CCC1 [retinoid acid]
- red fluorescence from RED1 reporter (RAR and IDI1): detected
- alteration of reporter gene activity of Gal-TK-Luc (Gal-TK-Luc): did not significantly alter
- reversal of repression of the reporter gene activity [1]: completely reversed
- induction of the reporter gene activity [2]: ~7 fold
- reversal of repression of the reporter gene [3]: reversed
